Source: patent EP1984353B1, “AURORA KINASE MODULATORS AND METHOD OF USE” (Amgen, Inc, priority 2006, dated 2007)
Where two headings read alike, the source gives them in different places.

Tests used:
AuroraA-TPX2 = molecular target: T1, AuroraA-TPX2 (Homo sapiens, UniProt O14965); assay: AuroraA-TPX2 Homogeneous Time Resolved Fluorescent (HTRF) kinase assay; type: biochemical; conditions: average, read-out: AurA/TP X2_ IC50_IP (Avg)
T1 construct: 20 µL of AuroraA-TPX2 KD GST; GST
T1 sequence (O14965 133-383 limits assumed): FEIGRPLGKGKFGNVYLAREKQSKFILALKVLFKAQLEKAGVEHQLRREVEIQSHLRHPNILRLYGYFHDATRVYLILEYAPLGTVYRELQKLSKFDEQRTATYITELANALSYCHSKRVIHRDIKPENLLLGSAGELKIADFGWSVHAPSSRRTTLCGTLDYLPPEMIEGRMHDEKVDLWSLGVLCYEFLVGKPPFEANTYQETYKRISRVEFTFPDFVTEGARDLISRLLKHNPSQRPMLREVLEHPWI
T1 sequence (Q9ULW0 1-43 partner limits assumed): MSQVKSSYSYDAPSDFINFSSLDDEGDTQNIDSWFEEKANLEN
Protocol: AuroraA-TPX2-Homogeneous Time Resolved Fluorescent (HTRF) Kinase Assay:
The Aurora-A HTRF assay begins with Aurora-A in the presence of ATP phosphorylating the biotinylated peptide PLK. The reaction incubates for about 120 min. Detection reagents are added to quench the reaction. These agents stop the reaction by diluting out the enzyme and chelating the metals due to the presence of EDTA. After addition, the assay is incubated overnight to allow the detection reagents to equilibrate.
The final concentration of PLK is about 1 µM. […] Buffer conditions are as follows: 60mM HEPES pH 7.5, 25mM NaCl, 10mM MgCl, 2mM DTT, 0.05% BSA.
(§1) The assay is quenched and stopped with 160 µL, of detection reagent. Detection reagents are as follows: Buffer made of 50mM Tris, pH 7.5, 100mM NaCl, 3mM EDTA, 0.05% BSA, 0.1% Tween20. Added to this buffer prior to reading is Steptavidin allophycocyanin (SA-APC) at a final conc in the assay of 0.0005 mg/mL, and europilated anti-phosphoPLK Ab (Eu-anti-PLK) at a final conc of 0.02 nM.
The assay plate is read in either a Discovery or a RubyStar. The eu-anti-PLK is excited at 320 nm and emits at 615 nm to excite the SA-APC which in turn emits at 655 nm.

AuroraB = molecular target: T2, AuroraB (Homo sapiens, UniProt Q96GD4); assay: AuroraB Homogeneous Time Resolved Fluorescent (HTRF) kinase assay; type: biochemical; conditions: average, read-out: AurB_ _IC50_IP (Avg)
T2 construct: 20 µL of AuroraB FL His; His
T2 sequence (Q96GD4 whole entry): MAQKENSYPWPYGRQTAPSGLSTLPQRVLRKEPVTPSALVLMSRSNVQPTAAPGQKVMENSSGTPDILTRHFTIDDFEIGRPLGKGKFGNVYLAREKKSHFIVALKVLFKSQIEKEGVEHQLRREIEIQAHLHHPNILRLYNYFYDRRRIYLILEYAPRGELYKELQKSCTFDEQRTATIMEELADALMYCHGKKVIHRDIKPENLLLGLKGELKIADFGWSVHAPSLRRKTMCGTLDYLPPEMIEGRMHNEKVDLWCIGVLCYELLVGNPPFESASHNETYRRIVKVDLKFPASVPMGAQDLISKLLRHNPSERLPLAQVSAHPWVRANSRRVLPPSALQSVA
Protocol: AuroraB-Homogeneous Time Resolved Fluorescent (HTRF) Kinase Assay:
The AuroraB HTRF assay begins with AuroraB in the presence of ATP phosphorylating the biotinylated peptide Histone H3. The reaction incubates for about 90 min. the reaction is quentched by addition of detection reagents, which stop the reaction by diluting out the enzyme and chelating the metals due to the presence of EDTA. After addition, the assay is incubated for about 60 min to allow detection reagents to equilibrate.
The AuroraB HTRF assay comprises 1 µL of compound in 100% DMSO, 20 µL of ATP and biotinylated Histone H3, and 20 µL of AuroraB FL His for a final volume of 41 µL. The final concentration of Histone H3 is 0.1 µM. The final concentration of ATP is 23 µM (Km(app) = 23 µM+/-2.6) and the final concentration of AuroraB is 400 pM. Buffer conditions are as follows: 50mM HEPES pH 7.5, 5mM NaCl, 0.5mM MgCl, 0.5mM MnCl, 2mM DTT, 0.05% BSA.
as §1, with “µL” for “µL,”, “0.001” for “0.0005”, “anti-phosphoHistoneH3” for “anti-phosphoPLK”, “(Eu-anti-HisH3)” for “(Eu-anti-PLK)”, “0.064” for “0.02”
The assay plate is read in either a Discovery or a RubyStar. The eu-anti-HisH3 is excited at 320 nm and emits at 615 nm to excite the SA-APC which in turn emits at 655 nm. The ratio of SA-APC at 655 nm (excited due to close proximity to the Eu-anti-HisH3 because of phosphorylation of the peptide) to free Eu-anti-HisH3 at 615 nm will give substrate phosphorylation.

[1] = given as numbers, unit inferred

| IC50 (AuroraA-TPX2; [1]) | IC50 (AuroraB; [1]) | IC50 (AuroraA-TPX2; given as class symbols) | IC50 (AuroraB; given as class symbols) | Structure (SMILES) |
| --- | --- | --- | --- | --- |
| 149 nM | 1.8 nM |  |  | C[C@@H](O)c1ccc(-c2nnc(Nc3ccc(Oc4ncccc4-c4ccnc(N)n4)cc3)c3ccccc23)cc1 [compound 256, (1R)-1-(4-(4-((4-((3-(2-amino-4-pyrimidinyl)-2-pyridinyl)oxy)phenyl)amino)-1-phthalazinyl)phenyl)ethanol] |
|  |  | ≤ 100 nM | ≤ 100 nM | C[C@H](O)c1ccc(-c2nnc(Nc3ccc(Oc4ncccc4-c4ccnc(N)n4)cc3)c3ccccc23)cc1 [compound 257, (1S)-1-(4-(4-((4-((3-(2-amino-4-pyrimidinyl)-2-pyridinyl)oxy)phenyl)amino)-1-phthalazinyl)phenyl)ethanol] |
|  |  | 500 to 2500 nM | 100 to 500 nM | CN1C[C@@H]2C[C@H]1CN2c1nnc(Nc2ccc(Oc3ncccc3-c3ccnc(N)n3)cc2)c2ccccc12 [compound 258, N-(4-((3-(2-amino-4-pyrimidinyl)-2-pyridinyl)oxy)phenyl)-4-((1S,4S)-5-methyl-2,5-diazabicyclo[2.2.1]hept-2-yl)-1-phthalazinamine] |
|  |  | ≤ 100 nM | ≤ 100 nM | Nc1nccc(-c2cccnc2Oc2ccc(Nc3ncc(-c4ccc(Cl)cc4)c4ccccc34)cc2)n1 [compound 265, N-(4-((3-(2-amino-4-pyrimidinyl)-2-pyridinyl)oxy)phenyl)-4-(4-chlorophenyl)-1-isoquinolinamine] |
|  |  | ≤ 100 nM | ≤ 100 nM | Nc1nccc(-c2cccnc2Oc2ccc(Nc3ncc(-c4ccccc4)c4ccccc34)cn2)n1 [compound 266, N-(6-((3-(2-amino-4-pyrimidinyl)-2-pyridinyl)oxy)-3-pyridinyl)-4-phenyl-1-isoquinolinamine] |
| 96.4 nM | 10.4 nM |  |  | c1ccc(-c2nnc(Nc3ccc(Oc4ncccc4-c4ccnc(NCCCN5CCCCC5)n4)nc3)c3ccccc23)cc1 [compound 267, 4-phenyl-N-(6-((3-(2-((3-(1-piperidinyl)propyl)amino)-4-pyrimidinyl)-2-pyridinyl)oxy)-3-pyridinyl)-1-phthalazinamine] |
|  |  | 500 to 2500 nM | 500 to 2500 nM | c1ccc(-c2nnc(Nc3ccc(Oc4ncccc4-n4ccnc4)cc3)c3ccccc23)cc1 [compound 268, N-(4-((3-(1H-imidazol-1-yl)-2-pyridinyl)oxy)phenyl)-4-phenyl-1-phthalazinamine] |
|  |  | ≤ 100 nM | ≤ 100 nM | CC(C)c1nnc(Nc2ccc(Oc3ncccc3-c3ccnc(N)n3)nc2)c2ccccc12 [compound 269, N-(6-((3-(2-amino-4-pyrimidinyl)-2-pyridinyl)oxy)-3-pyridinyl)-4-(1-methylethyl)-1-phthalazinamine] |
|  |  | ≤ 100 nM | ≤ 100 nM | Cc1cccc(-c2nnc(Nc3ccc(Oc4ncccc4-c4ccnc(N)n4)nc3)c3ccccc23)n1 [compound 270, N-(6-((3-(2-amino-4-pyrimidinyl)-2-pyridinyl)oxy)-3-pyridinyl)-4-(6-methyl-2-pyridinyl)-1-phthalazinamine] |
| 19.7 nM | 5.5 nM |  |  | Nc1nccc(-c2cccnc2Oc2ccc(Nc3nnc(C4CCCCC4)c4ccccc34)cc2)n1 [compound 272, N-(4-((3-(2-amino-4-pyrimidinyl)-2-pyridinyl)oxy)phenyl)-4-cyclohexyl-1-phthalazinamine] |
|  |  | 100 to 500 nM | ≤ 100 nM | CC(C)c1nnc(Nc2ccc(Oc3ncccc3-c3ccnc(N)n3)cc2)c2ccccc12 [compound 273, N-(4-((3-(2-amino-4-pyrimidinyl)-2-pyridinyl)oxy)phenyl)-4-(1-methylethyl)-1-phthalazinamine] |
| 94.9 nM | 13.4 nM |  |  | Cc1cccc(-c2nnc(Nc3ccc(Oc4ncccc4-c4ccnc(NCCCN5CCN(C)CC5)n4)cc3)c3ccccc23)n1 [compound 275, N-(4-((3-(2-((3-(4-methyl-1-piperazinyl)propyl)amino)-4-pyrimidinyl)-2-pyridinyl)oxy)phenyl)-4-(6-methyl-2-pyridinyl)-1-phthalazinamine] |
|  |  | 100 to 500 nM | ≤ 100 nM | Cc1cccc(-c2nnc(Nc3ccc(Oc4ncccc4-c4ccnc(NCCCN5CCCCC5)n4)cc3)c3ccccc23)n1 [compound 276, 4-(6-methyl-2-pyridinyl)-N-(4-((3-(2-((3-(1-piperidinyl)propyl)amino)-4-pyrimidinyl)-2-pyridinyl)oxy)phenyl)-1-phthalazinamine] |
| 126 nM | 2.7 nM |  |  | Cc1cccc(-c2nnc(Nc3ccc(Oc4ncccc4-c4ccnc(NCCCN5CCNCC5)n4)cc3)c3ccccc23)n1 [compound 277, 4-(6-methyl-2-pyridinyl)-N-(4-((3-(2-((3-(1-piperazinyl)propyl)amino)-4-pyrimidinyl)-2-pyridinyl)oxy)phenyl)-1-phthalazinamine] |
|  |  | 500 to 2500 nM | 100 to 500 nM | c1ccc(-c2nnc(Nc3ccc(Oc4ncccc4-c4ccnc5c4CCCN5)cc3)c3ccccc23)cc1 [compound 283, 4-phenyl-N-(4-((3-(5,6,7,8-tetrahydro-1,8-naphthyridin-4-yl)-2-pyridinyl)oxy)phenyl)-1-phthalazinamine] |
| 167 nM | 191 nM |  |  | Cc1csc(-c2nnc(Nc3ccc(Oc4ncccc4-c4ccnc5c4CCCN5)cc3)c3ccccc23)n1 [compound 284, 4-(4-methyl-1,3-thiazol-2-yl)-N-(4-((3-(5,6,7,8-tetrahydro-1,8-naphthyridin-4-yl)-2-pyridinyl)oxy)phenyl)-1-phthalazinamine] |
|  |  | 500 to 2500 nM | 100 to 500 nM | Cc1cc(-c2ccccc2)nnc1Nc1ccc(Oc2ncccc2-c2ccnc3c2CCCN3)cc1 [compound 285, 4-methyl-6-phenyl-N-(4-((3-(5,6,7,8-tetrahydro-1,8-naphthyridin-4-yl)-2-pyridinyl)oxy)phenyl)-3-pyridazinamine] |
| 83.3 nM | 10.3 nM |  |  | c1ccc(-c2nnc(Nc3ccc(Oc4ncccc4-c4ccnc5c4CCN5)cc3)c3ccccc23)cc1 [compound 287, N-(4-((3-(2,3-dihydro-1H-pyrrolo[2,3-b]pyridin-4-yl)-2-pyridinyl)oxy)phenyl)-4-phenyl-1-phthalazinamine] |
|  |  | ≤ 100 nM | 500 to 2500 nM | Cc1csc(-c2nnc(Nc3ccc(Oc4ncccc4-c4ccnc5c4CCN5)cc3)c3ccccc23)n1 [compound 288, N-(4-((3-(2,3-dihydro-1H-pyrrolo[2,3-b]pyridin-4-yl)-2-pyridinyl)oxy)phenyl)-4-(4-methyl-1,3-thiazol-2-yl)-1-phthalazinamine] |
| 24.1 nM | 1.9 nM |  |  | Cc1ccc(-c2nnc(Nc3ccc(Oc4ncccc4-c4ccnc(N)n4)nc3)c3ccccc23)nc1 [compound 289, N-(6-((3-(2-amino-4-pyrimidinyl)-2-pyridinyl)oxy)-3-pyridinyl)-4-(5-methyl-2-pyridinyl)-1-phthalazinamine] |
| 15.7 nM | 3 nM |  |  | CN1CCN(CCCNc2ncc(F)c(-c3cccnc3Oc3ccc(Nc4nnc(-c5ccccc5)c5ccccc45)cc3)n2)CC1 [compound 291, N-(4-((3-(5-fluoro-2-((3-(4-methyl-1-piperazinyl)propyl)amino)-4-pyrimidinyl)-2-pyridinyl)oxy)phenyl)-4-phenyl-1-phthalazinamine] |
